Test [1] concerns the target Protein arginine N-methyltransferase 5 (Homo sapiens, UniProt O14744). In words: Inhibition of PRMT5 in human Z138 cells assessed as decrease in di-methyl arginine levels after 96 hrs by Western blot method. In kind it is cell-based.
The target of a further test is PRMT5/MEP50 complex (Homo sapiens, UniProt O14744). The test is described as follows: Inhibition of recombinant human fetal brain FLAG-tagged PRMT5/full length human testis 6His-tagged MEP50 expressed in baculovirus infected insect Sf9 cells using human histone H4 (1 to 15 residues) as substrate preincubated for 30 mins followed by [3H]-SAM addition.
Chain of PRMT5/MEP50 complex (O14744 whole entry, the tested form may be a part): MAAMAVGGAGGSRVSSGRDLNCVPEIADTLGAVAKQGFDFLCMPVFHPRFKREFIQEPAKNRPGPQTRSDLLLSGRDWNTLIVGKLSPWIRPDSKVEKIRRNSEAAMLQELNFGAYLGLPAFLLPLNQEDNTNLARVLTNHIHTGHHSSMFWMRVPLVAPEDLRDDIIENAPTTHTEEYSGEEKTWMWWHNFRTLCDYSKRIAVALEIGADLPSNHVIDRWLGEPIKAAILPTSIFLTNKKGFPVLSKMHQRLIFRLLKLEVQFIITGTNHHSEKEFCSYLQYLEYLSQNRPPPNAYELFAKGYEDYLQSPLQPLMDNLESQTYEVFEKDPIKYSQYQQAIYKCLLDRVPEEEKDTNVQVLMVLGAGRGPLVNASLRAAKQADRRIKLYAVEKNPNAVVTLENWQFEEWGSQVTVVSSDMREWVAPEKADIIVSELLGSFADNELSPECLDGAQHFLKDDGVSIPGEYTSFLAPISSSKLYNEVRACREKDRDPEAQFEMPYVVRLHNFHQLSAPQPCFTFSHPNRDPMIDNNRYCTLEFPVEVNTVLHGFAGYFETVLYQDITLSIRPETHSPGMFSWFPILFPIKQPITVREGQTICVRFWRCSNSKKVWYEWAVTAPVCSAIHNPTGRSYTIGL
Chain of PRMT5/MEP50 complex (Q9BQA1 whole entry, further chain, the tested form may be a part): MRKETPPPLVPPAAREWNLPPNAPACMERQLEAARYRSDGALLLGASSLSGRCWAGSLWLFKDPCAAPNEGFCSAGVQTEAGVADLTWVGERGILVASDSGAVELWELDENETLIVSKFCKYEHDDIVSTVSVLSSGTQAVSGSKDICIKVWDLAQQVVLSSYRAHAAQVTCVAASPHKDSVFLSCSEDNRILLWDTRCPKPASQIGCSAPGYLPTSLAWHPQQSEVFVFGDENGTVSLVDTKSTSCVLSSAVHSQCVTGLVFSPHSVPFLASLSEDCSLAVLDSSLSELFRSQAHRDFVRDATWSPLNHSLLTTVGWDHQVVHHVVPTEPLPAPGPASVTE
Test [2] can be described thus: Antiproliferative activity against human Z138 cells assessed as inhibition of cell viability after 5 days by Cell-Titer Glo assay. In kind it is functional, cell-based. Conditions: Z-138, 120 h.

One may read the EC50 as the concentration needed to bring the measured effect to its halfway point. Broadly, the IC50 is the concentration needed to halve the response being measured.

Chain of Protein arginine N-methyltransferase 5 (O14744 whole entry, the tested form may be a part): as the sequence (O14744 whole entry, the tested form may be a part) above

`Cn1cnc2c1CN(c1cccc(OCC(O)CN3CCc4ccccc4C3)c1)CC2` (stereo not drawn): the values for the 50% effective concentration (EC50) in test [1] and in test [2] were 1000 to 10000 nM and above 20000 nM, respectively. The IC50 on PRMT5/MEP50 complex is 101 to 1000 nM.
The matching figures for `Cn1nccc1C(=O)Nc1cccc(OCC(O)CN2CCc3ccccc3C2)c1` (stereo not drawn): 1000 to 10000 nM, above 20000 nM and 1000 to 10000 nM.
In the case of `Cn1cnc2ccc(-c3cccc(OC[C@@H](O)CN4CCc5ccccc5C4)c3)cc21`, the EC50 in test [1] and in test [2] was 1000 to 10000 nM throughout. For the same compound, at PRMT5/MEP50 complex, the IC50 is 101 to 1000 nM.
Consider `Cn1cc2ccc(-c3ccnc(NCC(O)CN4CCc5ccccc5C4)c3)cc2n1` (stereo not drawn), for which the values for the EC50 in test [1] and in test [2] were 101 to 1000 nM and 1000 to 10000 nM, respectively. The IC50 on PRMT5/MEP50 complex is below 100 nM.
In the same order, the values of `O=C(Cn1ccc2cnc(-c3ccnc(NCC(O)CN4CCc5ccccc5C4)c3)nc21)N1CCOCC1` (stereo not drawn) are below 100 nM, 101 to 1000 nM and below 100 nM.
Turning to `Cn1cnc2ccc(-c3cccc(OC[C@H](O)CN4CCc5ccccc5C4)c3)cc21`, the figures for the EC50 in test [1] and in test [2] were 101 to 1000 nM and 1000 to 10000 nM, respectively. In addition, on PRMT5/MEP50 complex, the IC50 is below 100 nM.
The matching figures for `CN1CCC(n2cnc3ccc(-c4cccc(OCC(O)CN5CCc6ccccc6C5)c4)cc32)CC1` (stereo not drawn): 101 to 1000 nM, 1000 to 10000 nM and below 100 nM.
In the same order, the values of `COc1ccc(-c2cccc(OCC(O)CN3CCc4ccccc4C3)c2)cc1Cl` (stereo not drawn) are 10000 to 40000 nM, above 20000 nM and 101 to 1000 nM.
Turning to `O=C(Cn1ccc2cnc(-c3ccnc(NCC(O)CN4CCc5ccccc5C4)c3)nc21)N1CCCC1` (stereo not drawn), the EC50 in test [1] was below 100 nM; in test [2], 1000 to 10000 nM. The half-maximal inhibitory concentration (IC50) at PRMT5/MEP50 complex is below 100 nM.
On to `Cc1cn(C)c2cc(-c3cccc(OCC(O)CN4CCc5ccccc5C4)c3)ccc12` (stereo not drawn), for which the EC50 in test [1] was 1000 to 10000 nM; in test [2], above 20000 nM. At PRMT5/MEP50 complex, the half-inhibitory concentration (IC50) was 101 to 1000 nM.
The matching figures for `CNC(=O)c1cccc(-c2cccc(OCC(O)CN3CCc4ccccc4C3)c2)c1` (stereo not drawn): 1000 to 10000 nM, above 20000 nM and 101 to 1000 nM.
In the same order, the values of `Cn1ccc2cnc(-c3ccnc(NCC(O)CN4CCc5ccccc5C4)c3)nc21` (stereo not drawn) are below 100 nM, 1000 to 10000 nM and below 100 nM.
The matching figures for `O=C(c1cccc(-c2cccc(OCC(O)CN3CCc4ccccc4C3)c2)c1)N1CCCC1` (stereo not drawn): 1000 to 10000 nM, 10000 to 40000 nM and 101 to 1000 nM.
Turning to `OC(COc1cccc(-c2ccc3ncn(C4CCNC4)c3c2)c1)CN1CCc2ccccc2C1` (stereo not drawn), the EC50 in test [1] was 101 to 1000 nM; in test [2] it was 1000 to 10000 nM. At PRMT5/MEP50 complex, the IC50 is below 100 nM.
The matching figures for `NC(=O)c1cccc(-c2cccc(OCC(O)CN3CCc4ccccc4C3)c2)c1` (stereo not drawn): 1000 to 10000 nM, above 20000 nM and 101 to 1000 nM.
The matching figures for `OC(COc1cccc(-c2ccccc2Oc2ccccc2)c1)CN1CCc2ccccc2C1` (stereo not drawn): 1000 to 10000 nM, above 20000 nM and 101 to 1000 nM.
Consider `Cn1cc2ccc(-c3cc(NCC(O)CN4CCc5ccccc5C4)ncn3)cc2n1` (stereo not drawn), for which the EC50 in test [1] was 101 to 1000 nM; in test [2], above 20000 nM. Further, on PRMT5/MEP50 complex, the IC50 was in the range of 101 to 1000 nM.
For `OC(COc1cccc(-c2ccc3ncoc3c2)c1)CN1CCc2ccccc2C1` (stereo not drawn), the values for the EC50 in test [1] and in test [2] were 1000 to 10000 nM and 10000 to 40000 nM, respectively. Also, at PRMT5/MEP50 complex, the half-maximal inhibitory concentration (IC50) was 101 to 1000 nM.
As for `N#Cc1cccc(-c2cccc(OCC(O)CN3CCc4ccccc4C3)c2)c1` (stereo not drawn), the EC50 is 1000 to 10000 nM in test [1] and above 20000 nM in test [2]. The half-maximal inhibitory concentration (IC50) on PRMT5/MEP50 complex lay within 101 to 1000 nM.
Take `OC(COc1cccc(-c2cccc3[nH]cnc23)c1)CN1CCc2ccccc2C1` (stereo not drawn): the EC50 in test [1] lay within 101 to 1000 nM; in test [2], 10000 to 40000 nM. In addition, the 50% inhibitory concentration (IC50) at PRMT5/MEP50 complex was below 100 nM.
The matching figures for `OC(COc1cccc(-c2cc(OC(F)(F)F)ccc2Cl)c1)CN1CCc2ccccc2C1` (stereo not drawn): 10000 to 40000 nM, above 20000 nM and 101 to 1000 nM.
In the same order, the values of `Cn1ncc2ccc(-c3ccnc(NCC(O)CN4CCc5ccccc5C4)c3)cc21` (stereo not drawn) are 101 to 1000 nM, 1000 to 10000 nM and below 100 nM.
In the same order, the values of `Cn1cnc2ccc(-c3cc(NCC(O)CN4CCc5ccccc5C4)ccn3)cc21` (stereo not drawn) are 1000 to 10000 nM, 10000 to 40000 nM and 101 to 1000 nM.
In the case of `Cn1cnc2ccc(-c3cncc(NCC(O)CN4CCc5ccccc5C4)c3)cc21` (stereo not drawn), the EC50 in test [1] was below 100 nM; in test [2] it was 1000 to 10000 nM. Also, the IC50 on PRMT5/MEP50 complex is below 100 nM.
For the compound `Cn1cnc2ccc(-c3cccc(OCC(O)CN4CCc5ccccc5C4)c3)nc21` (stereo not drawn), the concentration for a half-maximal effect (EC50) in test [1] and in test [2] was 101 to 1000 nM throughout. In addition, the IC50 at PRMT5/MEP50 complex is below 100 nM.
On to `CN1CC(n2cnc3ccc(-c4cccc(OCC(O)CN5CCc6ccccc6C5)c4)cc32)C1` (stereo not drawn), for which the EC50 in test [1] lay within 101 to 1000 nM; in test [2], 1000 to 10000 nM. The IC50 on PRMT5/MEP50 complex is below 100 nM.

These data come from ChEMBL document CHEMBL3879915, “Methods of inhibiting PRMT5” (2014).
